In US20240270809A1, “ORAL GLP RECEPTOR AGONISTS” (priority 2020, published 2024):
Positions of bridges follow the written chain, without caps; N, C: chain ends. Non-standard residues stand in square brackets, D forms with d. Residues, ends and D or L forms follow the SMILES beside them. *: point of attachment. Malonyl(2,2-Me2,histaminyl) = CC(C)(C(=O)NCCc1cnc[nH]1)C(=O)*; Ala(1H-tetrazol-5-yl) = N[C@@H](Cc1nnn[nH]1)C(=O)O; αMePhe(2-F) = C[C@](N)(Cc1ccccc1F)C(=O)O; αMeL = CC(C)C[C@](C)(N)C(=O)O; Nle = CCCC[C@H](N)C(=O)O; Aib = CC(C)(N)C(=O)O

How the values were obtained:
Type in all cases: cell-based
human GLP2 receptor = target: T1, human GLP2 receptor (Homo sapiens, UniProt O95838); assay: cAMP accumulation assay, functional agonism of human GLP2 receptor; conditions: HEK cells infected with human GLP2 receptor BacMam virus, HTRF cAMP; for Emax: HEK293, read-out: Human GLP-2R agonist cAMP Emax; for EC50: read-out: Human GLP-2R agonist cAMP pEC50 (converted)
T1 construct: expressed in transfected cells; host or cells: HEK cells, BacMam virus transduction
T1 sequence (O95838 1-553): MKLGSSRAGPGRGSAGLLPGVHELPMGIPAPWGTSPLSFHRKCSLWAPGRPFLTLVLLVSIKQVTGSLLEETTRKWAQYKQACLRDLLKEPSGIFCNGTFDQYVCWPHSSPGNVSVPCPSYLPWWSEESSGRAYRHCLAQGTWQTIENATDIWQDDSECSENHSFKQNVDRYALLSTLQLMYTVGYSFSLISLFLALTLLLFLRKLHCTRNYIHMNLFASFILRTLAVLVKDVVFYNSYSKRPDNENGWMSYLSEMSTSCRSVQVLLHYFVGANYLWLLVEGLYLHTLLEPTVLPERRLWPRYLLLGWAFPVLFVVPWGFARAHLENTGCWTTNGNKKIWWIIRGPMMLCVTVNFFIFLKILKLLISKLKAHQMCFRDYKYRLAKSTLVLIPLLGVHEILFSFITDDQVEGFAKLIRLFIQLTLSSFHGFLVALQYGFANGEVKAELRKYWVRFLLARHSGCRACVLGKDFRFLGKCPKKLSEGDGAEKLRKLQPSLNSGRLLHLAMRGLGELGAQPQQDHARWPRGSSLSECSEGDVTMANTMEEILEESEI
Outline: (§1)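 Frozen HEK cells, previously BacMam-infected 24 h to express either receptor, are stimulated for 45 min at 37° C in IBMX-containing (0.5 mM) HBSS. The reaction is then terminated with HTRF reagents in lysis buffer.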

human GLP1 receptor = target: T2, human GLP1 receptor (Homo sapiens, UniProt P43220); assay: cAMP accumulation assay, functional agonism of human GLP1 receptor; conditions: HEK cells infected with human GLP1 receptor BacMam virus, HTRF cAMP; for Emax: HEK293, read-out: Human GLP-1R agonist cAMP Emax; for EC50: read-out: Human GLP-1R agonist cAMP pEC50 (converted)
T2 construct: expressed in transfected cells; host or cells: HEK cells, BacMam virus transduction
Outline: as §1

mouse GLP2 receptor = target: T3, mouse GLP2 receptor (Mus musculus, UniProt Q5IXF8); assay: cAMP accumulation assay, functional agonism of mouse GLP2 receptor; conditions: HEK cells transiently transfected with mouse GLP2 receptor, HTRF cAMP; for Emax: HEK293, read-out: Mouse GLP-2R agonist cAMP Emax; for EC50: read-out: Mouse GLP-2R agonist cAMP pEC50 (converted)
T3 construct: expressed in transfected cells; host or cells: HEK cells, transient transfection with GeneJuice
T3 sequence (Q5IXF8 1-512): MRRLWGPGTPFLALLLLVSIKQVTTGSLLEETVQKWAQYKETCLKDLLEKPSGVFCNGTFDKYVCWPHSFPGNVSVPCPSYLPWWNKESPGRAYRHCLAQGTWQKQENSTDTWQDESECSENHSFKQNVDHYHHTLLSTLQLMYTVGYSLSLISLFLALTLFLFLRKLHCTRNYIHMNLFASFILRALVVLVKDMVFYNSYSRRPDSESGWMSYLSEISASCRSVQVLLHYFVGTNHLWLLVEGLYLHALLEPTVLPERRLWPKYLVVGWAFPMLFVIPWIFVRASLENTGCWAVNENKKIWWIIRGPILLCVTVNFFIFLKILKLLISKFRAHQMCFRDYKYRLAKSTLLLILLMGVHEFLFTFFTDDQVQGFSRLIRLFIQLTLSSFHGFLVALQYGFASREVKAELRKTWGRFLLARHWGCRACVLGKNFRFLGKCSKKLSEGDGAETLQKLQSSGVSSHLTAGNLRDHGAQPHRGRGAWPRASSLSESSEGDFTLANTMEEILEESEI
Protocol: CAMP production upon agonist stimulation of mouse GLP2 or GLP1 receptors was assessed utilizing HiRange cAMP kit (Cisbio). In brief, HEK cells were transiently transfected for 24 hours with cDNA using GeneJuice Transfection reagent (EMD Millipore) and frozen at −80° C. for later use in the assay. On the day, various concentrations of compounds were dispensed using ECHO-555 (LabCyte) to a total volume of 100 nl into a low volume 384-well Proxi plate (Perkin Elmer) followed by addition of 10 μl of cell suspension delivering 8000 cells per well. Cells were prepared in the assay buffer (HBSS (Lonza) supplemented with 0.5 mM IBMX (Tocris)). After 45 min incubation at 37° C., the reaction was stopped by addition of the HTRF detection reagents in the lysis buffer provided in the kit. Following 1-hour incubation at RT, plates were read on Pherastar FS (BMG Labtech, Inc.) using standard HTRF settings. Dotmatics Studies software was used for calculation of pEC50 values by fitting data to a four-parameter concentration response curve.

T2 sequence (P43220 24-463): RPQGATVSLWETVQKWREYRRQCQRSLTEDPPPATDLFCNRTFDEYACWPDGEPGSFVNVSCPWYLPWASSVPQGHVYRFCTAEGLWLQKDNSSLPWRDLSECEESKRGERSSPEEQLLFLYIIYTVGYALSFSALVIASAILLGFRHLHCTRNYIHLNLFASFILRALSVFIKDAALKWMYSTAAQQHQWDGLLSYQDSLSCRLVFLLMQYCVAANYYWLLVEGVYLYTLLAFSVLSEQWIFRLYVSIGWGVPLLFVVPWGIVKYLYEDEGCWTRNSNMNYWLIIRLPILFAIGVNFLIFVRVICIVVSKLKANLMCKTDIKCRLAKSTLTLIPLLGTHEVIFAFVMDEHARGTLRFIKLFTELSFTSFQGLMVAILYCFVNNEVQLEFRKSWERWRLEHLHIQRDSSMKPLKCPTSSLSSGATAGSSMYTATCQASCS

Structure (SMILES) | Emax (human GLP2 receptor) | EC50 (human GLP2 receptor) | Emax (human GLP1 receptor) | EC50 (human GLP1 receptor) | Emax (mouse GLP2 receptor) | EC50 (mouse GLP2 receptor)
CCCC[C@@H]1NC(=O)[C@H](CCC(=O)O)NC(=O)[C@@H](NC(=O)[C@H](CO)NC(=O)[C@](C)(Cc2ccccc2F)NC(=O)[C@H](CO)NC(=O)[C@@H](C)NC(=O)[C@H](CC(=O)O)NC(=O)C(C)(C)C(=O)NCCc2c[nH]cn2)CCCCNC(=O)C[C@@H](C(=O)N[C@H](C(=O)N[C@@H](CC(C)C)C(=O)N[C@@H](CC(=O)O)C(=O)N[C@H]2CCC(=O)NCCCC[C@@H](C(=O)N[C@@H](CC(=O)O)C(=O)N[C@@H](Cc3ccccc3)C(=O)N[C@H](C(=O)N[C@@H](CC(N)=O)C(=O)N[C@@H](Cc3c[nH]c4ccccc34)C(=O)N[C@@H](CC(C)C)C(=O)N[C@H](C(=O)N[C@@H](CCC(N)=O)C(=O)N[C@H]3CCC(=O)NCCCC[C@@H](C(N)=O)NC(=O)[C@H]([C@@H](C)O)NC(=O)[C@H]([C@@H](C)CC)NC(=O)[C@H](CCCCN)NC3=O)[C@@H](C)CC)[C@@H](C)CC)NC(=O)[C@H](C)NC(=O)[C@H](C)NC(=O)[C@H](CCCCN)NC2=O)[C@@H](C)CC)NC(=O)[C@@H](Cc2ccccc2)NC1=O [Example 26] ({Malonyl(2,2-Me2,histaminyl)}-D[dA]S[αMePhe(2-F)]SKE[Nle][dF]DILDEKAAKDFINWLIQEKITK-NH2; lactam 6-10, 14-18, 27-31 (inferred); C-terminus assumed) | 103% | 0.0158 nM | 97.1% | 0.158 nM | 86.4% | 3.16 nM
CCCC[C@@H]1NC(=O)[C@H](CCC(=O)O)NC(=O)[C@@H](NC(=O)[C@H](CO)NC(=O)[C@](C)(Cc2ccccc2F)NC(=O)[C@H](CO)NC(=O)[C@@H](C)NC(=O)[C@H](Cc2nn[nH]n2)NC(=O)C(C)(C)C(=O)NCCc2c[nH]cn2)CCCCNC(=O)C[C@@H](C(=O)N[C@@](C)(CC(C)C)C(=O)N[C@@H](CC(C)C)C(=O)N[C@@H](CC(=O)O)C(=O)N[C@H]2CCC(=O)NCCCC[C@@H](C(=O)N[C@@H](CC(=O)O)C(=O)N[C@@H](Cc3ccccc3)C(=O)N[C@H](C(=O)N[C@H]3CCCCNC(=O)C[C@@H](C(=O)N[C@H]4CCC(=O)NCCCC[C@@H](C(N)=O)NC(=O)[C@H]([C@@H](C)O)NC(=O)[C@H]([C@@H](C)CC)NC(=O)[C@H](CCCCN)NC4=O)NC(=O)[C@H]([C@@H](C)CC)NC(=O)[C@H](CC(C)C)NC(=O)[C@H](Cc4c[nH]c5ccccc45)NC3=O)[C@@H](C)CC)NC(=O)[C@H](C)NC(=O)[C@H](C)NC(=O)[C@H](CCCCN)NC2=O)NC(=O)[C@@H](Cc2ccccc2)NC1=O [Example 56] ({Malonyl(2,2-Me2,histaminyl)}-[Ala(1H-tetrazol-5-yl)][dA]S[αMePhe(2-F)]SKE[Nle][dF]D[αMeL]LDEKAAKDFIKWLIDEKITK-NH2; lactam 6-10, 14-18, 22-26, 27-31 (inferred); C-terminus assumed) | 103% | 0.0126 nM | 97.3% | 0.0631 nM | 98.6% | 0.631 nM
CCCC[C@@H]1NC(=O)[C@H](CCC(=O)O)NC(=O)[C@@H](NC(=O)[C@H](CO)NC(=O)[C@](C)(Cc2ccccc2F)NC(=O)[C@H](CO)NC(=O)[C@@H](C)NC(=O)[C@H](CC(=O)O)NC(=O)C(C)(C)C(=O)NCCc2c[nH]cn2)CCCCNC(=O)C[C@@H](C(=O)N[C@@](C)(CC(C)C)C(=O)N[C@@H](CC(C)C)C(=O)N[C@@H](CC(=O)O)C(=O)N[C@H]2CCC(=O)NCCCC[C@@H](C(=O)N[C@@H](CC(=O)O)C(=O)N[C@@H](Cc3ccccc3)C(=O)N[C@H](C(=O)N[C@H]3CCC(=O)NCCCC[C@@H](C(=O)N[C@H]4CCC(=O)NCCCC[C@@H](C(N)=O)NC(=O)[C@H]([C@@H](C)O)NC(=O)[C@H]([C@@H](C)CC)NC(=O)[C@H](CCCCN)NC4=O)NC(=O)[C@H]([C@@H](C)CC)NC(=O)[C@H](CC(C)C)NC(=O)[C@H](Cc4c[nH]c5ccccc45)NC3=O)[C@@H](C)CC)NC(=O)[C@H](C)NC(=O)[C@H](C)NC(=O)[C@H](CCCCN)NC2=O)NC(=O)[C@@H](Cc2ccccc2)NC1=O [Example 50] ({Malonyl(2,2-Me2,histaminyl)}-D[dA]S[αMePhe(2-F)]SKE[Nle][dF]D[αMeL]LDEKAAKDFIEWLIKEKITK-NH2; lactam 6-10, 14-18, 22-26, 27-31 (inferred); C-terminus assumed) | 102% | 0.0251 nM | 98.3% | 0.1 nM | 81% | 7.94 nM
CCCC[C@H](NC(=O)[C@H](CCC(=O)O)NC(=O)[C@@H]1CCCCNC(=O)CC[C@H](NC(=O)[C@H](Cc2nn[nH]n2)NC(=O)C(C)(C)C(=O)NCCc2c[nH]cn2)C(=O)N[C@@H](CO)C(=O)N[C@@H](Cc2ccccc2)C(=O)N[C@@H](CO)C(=O)N1)C(=O)N[C@H](Cc1ccccc1)C(=O)N[C@H]1CCC(=O)NCCCC[C@@H](C(=O)N[C@H]2CCC(=O)NCCCC[C@@H](C(=O)N[C@@H](CC(=O)O)C(=O)N[C@@H](Cc3ccccc3)C(=O)N[C@H](C(=O)N[C@H]3CCC(=O)NCCCC[C@@H](C(=O)N[C@H]4CCCCNC(=O)CC[C@@H](C(N)=O)NC(=O)[C@H]([C@@H](C)O)NC(=O)[C@H]([C@@H](C)CC)NC(=O)[C@H](CCCCN)NC4=O)NC(=O)[C@H]([C@@H](C)CC)NC(=O)[C@H](CC(C)C)NC(=O)[C@H](Cc4c[nH]c5ccccc45)NC3=O)[C@@H](C)CC)NC(=O)[C@H](C)NC(=O)[C@H](C)NC2=O)NC(=O)[C@H](CC(=O)O)NC(=O)[C@H](CC(C)C)NC(=O)[C@H]([C@@H](C)CC)NC1=O [Example 78] | 103% | 0.0251 nM | 95.5% | 0.251 nM | 83.1% | 2 nM
CCCC[C@H](NC(=O)[C@H](CCC(=O)O)NC(=O)[C@H](CC(=O)O)NC(=O)[C@H](CO)NC(=O)[C@H](Cc1ccccc1)NC(=O)[C@H](CO)NC(=O)CNC(=O)[C@H](CC(=O)O)NC(=O)C(C)(C)NC(=O)[C@@H](N)Cc1c[nH]cn1)C(=O)N[C@H](Cc1ccccc1)C(=O)N[C@H](C(=O)N[C@H](C(=O)N[C@@H](CC(C)C)C(=O)N[C@@H](CC(=O)O)C(=O)N[C@H]1CCCCNC(=O)CC[C@@H](C(=O)N[C@@H](CC(=O)O)C(=O)N[C@@H](Cc2ccccc2)C(=O)N[C@H](C(=O)N[C@@H](CC(N)=O)C(=O)N[C@@H](Cc2c[nH]c3ccccc23)C(=O)N[C@@H](CC(C)C)C(=O)N[C@H](C(=O)N[C@@H](CCC(N)=O)C(=O)N[C@H](C(=O)N[C@@H](CCCCN)C(=O)N[C@H](C(=O)N[C@H](C(=O)N[C@@H](CC(=O)O)C(N)=O)[C@@H](C)O)[C@@H](C)CC)[C@@H](C)O)[C@@H](C)CC)[C@@H](C)CC)NC(=O)[C@H](C)NC(=O)[C@H](C)NC(=O)[C@H](CCCCN)NC1=O)[C@@H](C)CC)[C@@H](C)O [Example 102] (H-H[Aib]DGSFSDE[Nle][dF]TILDKKAAEDFINWLIQTKITD-NH2; lactam 16-20; N-terminus and C-terminus assumed) | 101% | 0.00126 nM | 99.3% | 20 nM | 99% | 0.02 nM
